Among the data in patent publication US9238034B2, “FN14 antagonists and therapeutic uses thereof” (THE TRANSLATIONAL GENOMICS RESEARCH INSTITUTE, priority 2013, dated 2016) are inhibition values, retold here.

In this experiment the target is T1, Fn14-TWEAK binding (Homo sapiens, UniProt Q9NP84).
T1 construct: the human Fc fragment-tagged Fn14 extracellular domain (R&D Systems) was captured; purchased R&D Systems (Fn14-Fc); Peprotech (recombinant TWEAK)
T1 sequence (Q9NP84 28-80 limits assumed): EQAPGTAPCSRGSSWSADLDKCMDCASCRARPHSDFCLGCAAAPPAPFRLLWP
The experiment can be described thus: Double sandwich ELISA small molecule screening of TWEAK binding to captured Fn14-Fc. The protocol:
Double Sandwich ELISA. sTWEAK and sTWEAK variant proteins were synthesized as described above. The expression level of each IVTT synthesized sTWEAK protein was analyzed by western blot analysis and used in approximately equal amounts in the ELISA. To assay the binding of wild type sTWEAK and sTWEAK variants to Fn14, the human Fc fragment-tagged Fn14 extracellular domain (R&D Systems) was captured in an Immuno 96-microwell white plate by adding 100 μL of 0.025 μg/mL Fn14-Fc to wells coated with goat anti-human Fcγ fragment specific monoclonal antibody. After capture, the wells were washed 3× with Dulbecco's Phosphate Buffered Saline (DPBS) containing 0.05% Tween-20. Unbound sites were blocked by addition of 100 μL of blocking solution containing 0.05% Tween-20, 1% BSA, and 3% normal goat serum (NGS) in DPBS for 1 hr at room temperature. 0.01 μL of sTWEAK or sTWEAK variant made with the human IVTT kit or 2 μL of sTWEAK or sTWEAK variant made with the rabbit IVTT kit was diluted in 100 μL of sample diluent (DPBS+1% BSA+0.005% Tween-20) and then added to the wells for 2 hr followed by addition of 100 μL of 50 ng/mL biotinylated TWEAK detection antibody (R&D Systems) in sample diluent. Following incubation for additional 2 hr at room temperature, wells were washed 3× with DPBS containing 0.05% Tween-20 and bound biotinylated TWEAK antibody was detected by incubation with an HRP-conjugated streptavidin. The total luminescent signal was obtained using Femto ELISA kit (Pierce Biochemical) and compared to the standard curve signal obtained from the binding of 0-4000 pg/mL recombinant TWEAK (Peprotech inc) to Fn14-Fc. Using 5-parameter logistic curve fitting for standard curve analysis (Sigmaplot 11.0, SyStat Software Inc.), binding of sTWEAK or TWEAK variant to Fn14-Fc was determined. The data represents that observed for at least four replicate assays.
The small molecule screening was performed using the ELISA assay described above with minor modifications. Briefly, after capturing Fn14-Fc in the microwell plate, 80 μl of drug solution in sample diluent was added to desired wells and incubated for 2 hrs at room temperature. Subsequently, 20 μL of 2500 pg/mL (5×) TWEAK was added to each well to achieve final TWEAK concentration of 500 pg/mL and incubated for additional 2 hr at room temperature. Bound TWEAK was detected as described in the protocol above. All small molecule inhibitors were screened at 25 μM final concentration (final DMSO concentration of 0.125%) in duplicate. Cyclohexamide, a non-specific small molecule, at 25 μM concentration was used as negative control. The anti-Fn14 antibody ITEM-4, added at 2.5 μg/mL, was used as a positive control for complete blockade of TWEAK binding. Reduction in TWEAK binding due to compound addition or controls was calculated by using standard curve (Separate standard curve was obtained for every screening plate).
For orientation: An ELISA detects its analyte on a solid surface through an enzyme-linked reagent.

Where [1] appears, read: Table 3, first round of screening, 25 μM, average of duplicate, read-out: % Reduction in TWEAK Binding, Average.
[2] abbreviates: Table 3, first round of screening, 25 μM, replicate 1, read-out: % Reduction in TWEAK Binding, Data 1.
Setting [3] is: Table 3, first round of screening, 25 μM, replicate 2, read-out: % Reduction in TWEAK Binding, Data 2.
[4] abbreviates: Table 5, 25 μM, average of duplicate, read-out: % Reduction in TWEAK Binding, Average.
[5] abbreviates: Table 5, 25 μM, replicate 1, read-out: % Reduction in TWEAK Binding, Data 1.
Setting [6] is: Table 5, 25 μM, replicate 2, read-out: % Reduction in TWEAK Binding, Data 2.
The mark [7] stands for this setting: first round of screening, 25 μM, read-out: average inhibition in TWEAK-Fn14 binding.
[8] abbreviates: Table 4, second screening iteration, 25 μM, average of duplicate, read-out: % Reduction in TWEAK Binding, Average.
Setting [9] is: Table 4, second screening iteration, 25 μM, replicate 1, read-out: % Reduction in TWEAK Binding, Data 1.
The mark [10] stands for this setting: Table 4, second screening iteration, 25 μM, replicate 2, read-out: % Reduction in TWEAK Binding, Data 2.

Where two headings read alike, the source gives them in different places.

Regarding `Cc1cc(C)n(CC(=O)NCCc2c[nH]c3ccccc23)n1` [Compound D715-0890], the inhibition at 25 µM turned out to be 15.3% under setting [1]; 17.1% under setting [2]; 13.6% under setting [3]; 15.3% under setting [4]; 17.1% under setting [5]; 13.6% under setting [6]. Moreover, the inhibition at 25 µM under setting [7] is above 15%.
For `O=C(O)C[C@@H]1NC(=O)c2ccccc2NC1=O` [Compound D715-2673], the inhibition at 25 µM by setting is: under setting [1], 14.5%; under setting [2], 14.3%; under setting [3], 14.7%; under setting [4], 14.5%; under setting [5], 14.3%; under setting [6], 14.7%. For the same molecule, the inhibition at 25 µM under setting [7] is below 15%.
`COc1ccccc1NC(=O)Cc1csc(NC(=O)Nc2ccccc2)n1` [Compound F042-0072]: the inhibition at 25 µM by setting is: under setting [1], 10.4%; under setting [2], 13%; under setting [3], 7.81%; under setting [4], 10.4%; under setting [5], 13%; under setting [6], 7.81%.
With `O=C(NCc1n[nH]c(=O)c2ccccc12)C(=O)N1CCCCCC1` [Compound F044-0011], the inhibition at 25 µM worked out at 22% under setting [8]; 20.8% under setting [9]; 23.2% under setting [10]; 22% under setting [4]; 20.8% under setting [5]; 23.2% under setting [6].
Regarding `CC(C)NC(=O)C(=O)NCc1n[nH]c(=O)c2ccccc12` [Compound F044-0043], the inhibition at 25 µM is 13.7% under setting [1]; 12.8% under setting [2]; 14.7% under setting [3]; 13.7% under setting [4]; 12.8% under setting [5]; 14.7% under setting [6]. The inhibition at 25 µM under setting [7] was below 15%.
On to `CCOCCCNC(=O)C(=O)NCc1n[nH]c(=O)c2ccccc12` [Compound F044-0058], for which the inhibition at 25 µM is, setting by setting: under setting [1], 12%; under setting [2], 9.99%; under setting [3], 14.1%; under setting [4], 12%; under setting [5], 9.99%; under setting [6], 14.1%.
On to `O=C(NCc1ccccc1)C(=O)NCc1n[nH]c(=O)c2ccccc12` [Compound F044-0075], for which the inhibition at 25 µM under setting [1] was determined as 13%; the inhibition at 25 µM under setting [2] stood at 13.2%; the inhibition at 25 µM under setting [3] turned out to be 12.8%; the inhibition at 25 µM under setting [4] came out at 13%; the inhibition at 25 µM under setting [5] is 13.2%; the inhibition at 25 µM under setting [6] worked out at 12.8%. Also, the inhibition at 25 µM under setting [7] is below 15%.
In the case of `O=C(NCc1ccccc1Cl)C(=O)NCc1n[nH]c(=O)c2ccccc12` [Compound F044-0076], the inhibition at 25 µM is, setting by setting: under setting [1], 10.9%; under setting [2], 8.55%; under setting [3], 13.2%; under setting [8], 1.62%; under setting [9], -2.3%; under setting [10], 5.55%. Besides, the inhibition at 25 µM reads like this: under setting [4], 10.9%; under setting [5], 8.55%; under setting [6], 13.2%.
Take `O=C(NCc1ccc(F)cc1)C(=O)NCc1n[nH]c(=O)c2ccccc12` [Compound F044-0077]: the inhibition at 25 µM was found to be 11.5% under setting [1]; 12.6% under setting [2]; 10.4% under setting [3]; 11.5% under setting [4]; 12.6% under setting [5]; 10.4% under setting [6].
As for `O=C(NCc1cccnc1)C(=O)NCc1n[nH]c(=O)c2ccccc12` [Compound F044-0083], the inhibition at 25 µM reads like this: under setting [1], 11%; under setting [2], 11.1%; under setting [3], 10.8%; under setting [4], 11%; under setting [5], 11.1%; under setting [6], 10.8%.
Regarding `CCC(=O)Nc1ccccc1-c1nnc(SC(CC)C(=O)Nc2cccc(OC)c2)[nH]c1=O` (stereo not drawn) [Compound F151-0392], the inhibition at 25 µM was determined as 11.6% under setting [1]; 9.04% under setting [2]; 14.2% under setting [3]; 11.6% under setting [4]; 9.04% under setting [5]; 14.2% under setting [6].
Consider `CCC(=O)Nc1ccccc1-c1nnc(SC(C)C(=O)Nc2cccc(Cl)c2C)[nH]c1=O` (stereo not drawn) [Compound F151-0419], for which the inhibition at 25 µM stood at 10.9% under setting [1]; 8.79% under setting [2]; 13% under setting [3]; 10.9% under setting [4]; 8.79% under setting [5]; 13% under setting [6].
Regarding `CCC(=O)Nc1ccccc1-c1nnc(SC(CC)C(=O)Nc2cc(OC)cc(OC)c2)[nH]c1=O` (stereo not drawn) [Compound F151-0435], the inhibition at 25 µM was 15.5% under setting [1]; 18.9% under setting [2]; 12.2% under setting [3]; 15.5% under setting [4]; 18.9% under setting [5]; 12.2% under setting [6]. Besides, under setting [7], the inhibition at 25 µM was above 15%.
Turning to `CCC(=O)Nc1ccccc1-c1nnc(SCC(=O)Nc2cc(C)ccc2C)[nH]c1=O` [Compound F151-0458], the inhibition at 25 µM is, setting by setting: under setting [1], 11.1%; under setting [2], 10.7%; under setting [3], 11.5%; under setting [4], 11.1%; under setting [5], 10.7%; under setting [6], 11.5%.
`CCC(=O)Nc1ccccc1-c1nnc(SCC(=O)Nc2ccc(OC)cc2)[nH]c1=O` [Compound F151-0485]: the inhibition at 25 µM by setting is: under setting [1], 10.3%; under setting [2], 14.7%; under setting [3], 5.86%; under setting [4], 10.3%; under setting [5], 14.7%; under setting [6], 5.86%.
Consider `O=C(CSc1ccccc1)Nc1cccc2nsnc12` [Compound F281-0079], for which the inhibition at 25 µM runs as follows: under setting [8], 14.6%; under setting [9], 15.5%; under setting [10], 13.7%; under setting [4], 14.6%; under setting [5], 15.5%; under setting [6], 13.7%.
Regarding `O=C(CSc1nnc(-c2ccccc2)c(-c2ccccc2)n1)Nc1ccccc1` [Compound G003-0114], the inhibition at 25 µM by setting is: under setting [8], 13%; under setting [9], 14.7%; under setting [10], 11.3%; under setting [4], 13%; under setting [5], 14.7%; under setting [6], 11.3%.
With `O=C(CSc1nc2c(cnn2-c2ccccc2)c(=O)[nH]1)NCc1ccc(F)cc1` [Compound G873-0031], the inhibition at 25 µM runs as follows: under setting [1], 14.2%; under setting [2], 20.3%; under setting [3], 8.06%; under setting [4], 14.2%; under setting [5], 20.3%; under setting [6], 8.06%. The inhibition at 25 µM (first round of screening, 25 μM, read-out: single point activities / individual data points, inhibition of the Fn14-TWEAK interaction) is above 15%.
